Laboratory results as given in patent publication US20250302815A1, “PROTEIN TYROSINE PHOSPHATASE TARGETING LIGANDS” (CALICO LIFE SCIENCES LLC, priority 2021, published 2025).

Tests used:
[1] = tested on: MC-38 tumor; assay: syngeneic mouse tumor model, MC-38 tumor growth inhibition; format: in vivo; conditions: MC-38 tumor-bearing mice, mean tumor volume of 10 mice
Source text: Each point on the curve represents the mean of 10 tumor volume of 10 mice. Error bars depict the standard error of the mean. **=p<0.01.

[2] = target: T1, PTPN2 (HiBIT-PTPN2 in 293T.109 cells) (Homo sapiens, UniProt P17706); assay: HiBiT Degradation 293T.109 PTPN2 (Nano-Glo HiBiT Lytic Assay); format: cell-based; conditions: 24.0 hours
T1 construct: expressed in transfected cells; host or cells: 293T.109 (293T WT from ATCC)
T1 sequence (P17706 1-415): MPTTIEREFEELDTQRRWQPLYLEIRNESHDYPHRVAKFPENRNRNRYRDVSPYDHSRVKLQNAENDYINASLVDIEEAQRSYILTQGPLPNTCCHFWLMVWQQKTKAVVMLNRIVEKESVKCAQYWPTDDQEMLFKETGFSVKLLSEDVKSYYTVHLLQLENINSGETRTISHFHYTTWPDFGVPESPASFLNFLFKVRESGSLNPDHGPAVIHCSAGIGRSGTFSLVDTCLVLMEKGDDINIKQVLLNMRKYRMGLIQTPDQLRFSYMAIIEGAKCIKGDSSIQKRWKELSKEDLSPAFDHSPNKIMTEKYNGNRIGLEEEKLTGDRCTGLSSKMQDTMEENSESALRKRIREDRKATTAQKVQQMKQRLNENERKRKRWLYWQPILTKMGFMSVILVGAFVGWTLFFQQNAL
How it was run: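 293T.109 cells with ectopic N-terminal HiBiT-tagged PTPN2 (5000/well) exposed to compounds for 24 h at 37 °C, 5% CO2; 11-point half-log titration from 10 μM top, duplicates. Remaining HiBiT-PTPN2 read as luminescence with Nano-Glo HiBiT lytic reagent, normalised to untreated cells (0%) and reagent-free wells.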

[3] = target: T2, PTPN2 (B16F10.4 cells) (Mus musculus, UniProt Q06180); assay: HiBiT Degradation B16F10.4 PTPN2; format: cell-based; conditions: 24.0 hours
T2 construct: HiBiT; host or cells: B16F10.4
T2 sequence (Q06180 1-406): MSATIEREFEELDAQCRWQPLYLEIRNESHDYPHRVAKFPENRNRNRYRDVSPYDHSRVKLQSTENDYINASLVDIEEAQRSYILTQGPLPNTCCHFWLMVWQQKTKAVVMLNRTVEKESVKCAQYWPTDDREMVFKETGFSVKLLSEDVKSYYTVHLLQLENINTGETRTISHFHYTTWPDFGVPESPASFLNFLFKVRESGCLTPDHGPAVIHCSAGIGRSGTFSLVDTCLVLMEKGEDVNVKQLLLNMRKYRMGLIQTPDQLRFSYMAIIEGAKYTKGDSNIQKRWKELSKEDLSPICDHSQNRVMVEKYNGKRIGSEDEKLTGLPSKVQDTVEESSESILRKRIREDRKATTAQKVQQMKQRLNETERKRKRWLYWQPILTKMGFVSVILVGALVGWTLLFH

[4] = tested on: MC-38 murine colon adenocarcinoma tumors; assay: In vivo efficacy in MC38 syngeneic tumor model; conditions: MC-38 tumor-bearing mice
Description: All experiments were conducted in compliance with AbbVie's Institutional Animal Care and Use Committee and the National Institutes of Health Guide for Care and Use of Laboratory Animals guidelines in a facility accredited by the Association for the Assessment and Accreditation of Laboratory Animal Care. C57Bl/6 female mice were obtained from Charles River (Wilmington, MA). The mice were group-housed 10 per cage. Food and water were available ad libitum. Animals were acclimated to the animal facilities for a period of at least one week prior to commencement of experiments. Animals were tested in the light phase of a 12-hour light: 12-hour dark schedule (lights on 0600 hours).
Cells were grown to passage 3 in vitro. A total of 1×10^5 viable MC-38 cells were inoculated subcutaneously into the right flank of female C57Bl/6 mice (7-12 weeks old) on Day 0. The injection volume was 0.1 mL and was composed of a 1:1 mixture of S-MEM and Matrigel® (Corning, NY, USA). […] The mean tumor volume (TV) at size match was approximately 139±45 mm^3. Following size match, treatments were initiated on the same day. Dosing of mice with Compound 187b (Example 187b) was conducted intravenously, weekly (QW) for 3 weeks. Mice were dosed (10 mg/kg/dose) with either Compound 187b or vehicle controls (n=10 mice/group). Compound 187b was formulated in 5% DMSO+10% PEG400+85% (35% HP-β-CD in water) and was dosed at 5 mL/kg. Anti-PD-1 and isotype antibodies were dosed at 5 mg/kg, […] at 4 day intervals (Q4Dx3). Antibodies were formulated in PBS and dosed at 10 mL/kg. Tumor volume was calculated three times weekly. Measurements of the length (L) and width (W) of the tumor were taken via electronic caliper and the volume was calculated according to the following equation: V=L×W^2/2 using Study Director Version 3.1.399.22 (Study log Systems, Inc, CA, USA). Mice were euthanized when tumor volume was […] or skin ulcerations occurred.

[5] = combination of anti-PD-1 antibody (5 mg/kg) with Compound 187b (10 mg/kg i.v. QWx3)
[6] = monotherapy, Compound 187b 10 mg/kg intravenously QW for 3 weeks, anti-PD-1 5 mg/kg intraperitoneal every 4 days

| DC50 [2] | DC50 [3] | Structure (SMILES) | further results |
| --- | --- | --- | --- |
| < 50 nM | < 50 nM | CC1(C)C[C@@H](Nc2cccc(-c3sc(C(=O)O)c(OCC(=O)O)c3Cl)c2)CCN1S(=O)(=O)Cc1cccc(NC(=O)N2CCC(c3ccc4c5c(cccc35)C(=O)N4[C@H]3CCC(=O)NC3=O)CC2)c1 (single isomer, unassigned) [Example 187b] | anticancer and tumor growth inhibition activity in vivo ([1]; in combination with anti-PD-1 therapy (Q4Dx2)): tumor growth inhibition; anticancer and tumor growth inhibition activity in vivo ([1]; monotherapy, QWx3): tumor growth inhibition; tolerability ([4]; 10 mg/kg intravenously QW for 3 weeks): well tolerated; TGIMax (maximal tumor growth inhibition) [4, 5]: 98%; mice achieving cures [4, 5]: 90%; TGIMax (maximal tumor growth inhibition) [4, 6]: 75%; mice achieving complete cures [4, 6]: 10%; tumor response ([4]; within 7-10 days of monotherapy treatment): apparent tumor stasis and shrinkage |
| 50 to 200 nM | 200 to 1000 nM | Cn1c(=O)n(C2CCC(=O)NC2=O)c2cc(F)c(C3CCN(C(=O)Nc4cccc(CS(=O)(=O)N5CC[C@H](Nc6cccc(-c7sc(C(=O)O)c(OCC(=O)O)c7Cl)c6)CC5(C)C)c4)CC3)cc21 (stereo partly drawn) [Example 153, 3-(carboxymethoxy)-4-chloro-5-[3-[[(4S)-1-[[3-[[4-[1-(2,6-dioxo-3-piperidyl)-6-fluoro-3-methyl-2-oxo-benzimidazol-5-yl]piperidine-1-carbonyl]amino]phenyl]methylsulfonyl]-2,2-dimethyl-4-piperidyl]amino]phenyl]thiophene-2-carboxylic acid] |  |
| 50 to 200 nM | 50 to 200 nM | CC(C)n1c(=O)n(C2CCC(=O)NC2=O)c2ccc(C3CCN(C(=O)Nc4cccc(CS(=O)(=O)N5CC[C@H](Nc6cccc(-c7sc(C(=O)O)c(OCC(=O)O)c7Cl)c6)CC5(C)C)c4)CC3)cc21 (single isomer, unassigned) [Example 87b] |  |
| 200 to 1000 nM | 50 to 200 nM | Cn1c(=O)n(C2CCC(=O)NC2=O)c2ccc(C3CCN(C(=O)Nc4cccc(CS(=O)(=O)N5CC[C@@H](Oc6cccc(-c7sc(C(=O)O)c(OCC(=O)O)c7Cl)c6)CC5(C)C)c4)CC3)cc21 (stereo partly drawn) [Example 226, 3-(carboxymethoxy)-4-chloro-5-(3-(((4R)-1-((3-(4-(1-(2,6-dioxopiperidin-3-yl)-3-methyl-2-oxo-2,3-dihydro-1H-benzo[d]imidazol-5-yl)piperidine-1-carboxamido)benzyl)sulfonyl)-2,2-dimethylpiperidin-4-yl)oxy)phenyl)thiophene-2-carboxylic acid] |  |
| 50 to 200 nM | 50 to 200 nM | CCn1nc(C2CCC(=O)NC2=O)c2ccc(C3CCN(C(=O)Nc4cccc(CS(=O)(=O)N5CC[C@H](Nc6cccc(-c7sc(C(=O)O)c(OCC(=O)O)c7Cl)c6)CC5(C)C)c4)CC3(F)F)cc21 (stereo partly drawn) [Example 200, 3-(carboxymethoxy)-4-chloro-5-[3-[[(4S)-1-[[3-[[4-[3-(2,6-dioxo-3-piperidyl)-1-ethyl-indazol-6-yl]-3,3-difluoro-piperidine-1-carbonyl]amino]phenyl]methylsulfonyl]-2,2-dimethyl-4-piperidyl]amino]phenyl]thiophene-2-carboxylic acid] |  |
| < 50 nM | 50 to 200 nM | Cn1c(=O)n(C2CCC(=O)NC2=O)c2ccc(N3CCC(CCNCCNc4cccc(CS(=O)(=O)N5CC[C@H](Nc6cccc(-c7sc(C(=O)O)c(OCC(=O)O)c7Cl)c6)CC5(C)C)c4)CC3)cc21 (stereo partly drawn) [Example 237, 3-(carboxymethoxy)-4-chloro-5-[3-[[(4S)-1-[[3-[2-[2-[1-[1-(2,6-dioxo-3-piperidyl)-3-methyl-2-oxo-benzimidazol-5-yl]-4-piperidyl]ethylamino]ethylamino]phenyl]methylsulfonyl]-2,2-dimethyl-4-piperidyl]amino]phenyl]thiophene-2-carboxylic acid] |  |
| 50 to 200 nM | 50 to 200 nM | Cn1c(=O)n(C2CCC(=O)NC2=O)c2ccc(Nc3cccc(CC(=O)Nc4cccc(CS(=O)(=O)N5CC[C@H](Nc6cccc(-c7sc(C(=O)O)c(OCC(=O)O)c7Cl)c6)CC5(C)C)c4)c3)cc21 (stereo partly drawn) [Example 191, 3-(carboxymethoxy)-4-chloro-5-(3-(((4S)-1-((3-(2-(3-((1-(2,6-dioxopiperidin-3-yl)-3-methyl-2-oxo-2,3-dihydro-1H-benzo[d]imidazol-5-yl)amino)phenyl)acetamido)benzyl)sulfonyl)-2,2-dimethylpiperidin-4-yl)amino)phenyl)thiophene-2-carboxylic acid] |  |
